# Measured values taken from patent US9708314B2, “Heterocyclic amide compound” (NISSAN CHEMICAL INDUSTRIES, LTD., priority 2013, dated 2017).
# Experiments:
# Type in all cases: in vivo
# Cyperus difformis = experiment: Test Example 3: herbicidal effect by application to foliage (Wagner pot, water depth 0.1-0.5 cm); conditions: Nineteenth Table; application to foliage; application herbicide amount 320 g/ha
# In short: (§1)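 Rice-field weeds and directly sown rice were grown 14 days in flooded alluvial soil (water depth 0.1–0.5 cm) at 25–30 °C in a greenhouse. An emulsion formulation diluted to the stated g/ha rate was sprayed onto stems and leaves. Effects were scored on a 0–5 scale (herbicidal ratio bands) three weeks after treatment.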
# [1] = test system: Echinochloa crus-galli var. crus-galli; experiment: as above; conditions: Nineteenth Table, application to foliage
# In short: as §1
# Leptochloa chinensis = experiment: as above; conditions: Nineteenth Table, application to foliage
# In short: as §1
# [2] = test system: directly sowed Oryza sativa; experiment: Test Example 3: effect on crop by application to foliage (Wagner pot, water depth 0.1-0.5 cm); conditions: Nineteenth Table, application to foliage
# In short: as §1
# Abutilon theophrasti = experiment: Test Example 4: herbicidal effect by application to foliage (diluvial soil, plastic box); conditions: for M (Abutilon theophrasti) herbicidal effect grade: foliage application; for herbicidal effect, M (Abutilon theophrasti): application to foliage
# In short: (§2)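 Seeds sown in sterilized diluvial soil, covered ~1.5 cm, grown 14 days in greenhouse at 25° C. to 30° C. Emulsion formulation diluted in water to set rate (g/ha) and sprayed onto stems and leaves. Effect scored visually 3 weeks later on 0–5 scale (5 = ≥90% herbicidal ratio, 0 = ≤5%).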
# Alopecurus myosuroides = experiment: as above; conditions: for J (Alopecurus myosuroides) herbicidal effect grade: foliage application; for herbicidal effect, J (Alopecurus myosuroides): application to foliage
# In short: as §2
# Amaranthus retroflexus = experiment: as above; conditions: for N (Amaranthus retroflexus) herbicidal effect grade: foliage application; for herbicidal effect, N (Amaranthus retroflexus): application to foliage
# In short: as §2
# Apera spica-venti. = experiment: as above; conditions: for L (Apera spica-venti.) herbicidal effect grade: foliage application; for herbicidal effect, L (Apera spica-venti.): application to foliage
# In short: as §2
# Avena fatua = experiment: as above; conditions: for I (Avena fatua) herbicidal effect grade: foliage application; for herbicidal effect, I (Avena fatua): application to foliage
# In short: as §2
# Chenopodium album = experiment: as above; conditions: for O (Chenopodium album) herbicidal effect grade: foliage application; for herbicidal effect, O (Chenopodium album): application to foliage
# In short: as §2
# Digitaria ciliaris = experiment: as above; conditions: for F (Digitaria ciliaris) herbicidal effect grade: foliage application; for herbicidal effect, F (Digitaria ciliaris): application to foliage
# In short: as §2
# [3] = test system: Echinochloa crus-galli var. crus-galli; experiment: as above; conditions: for H (Echinochloa crus-galli var. crus-galli) herbicidal effect grade: foliage application; for herbicidal effect, H (Echinochloa crus-galli var. crus-galli): application to foliage
# In short: as §2
# Galium spurium = experiment: as above; conditions: for herbicidal effect, Q (Galium spurium): application to foliage
# In short: as §2
# Lolium multiflorum Lam. = experiment: as above; conditions: for K (Lolium multiflorum Lam.) herbicidal effect grade: foliage application; for herbicidal effect, K (Lolium multiflorum Lam.): application to foliage
# In short: as §2
# Setaria viridis = experiment: as above; conditions: for G (Setaria viridis) herbicidal effect grade: foliage application; for herbicidal effect, G (Setaria viridis): application to foliage
# In short: as §2
# Stellaria media = experiment: as above; conditions: for P (Stellaria media) herbicidal effect grade: foliage application; for herbicidal effect, P (Stellaria media): application to foliage
# In short: as §2
# Veronica persica = experiment: as above; conditions: application to foliage
# In short: as §2
# [4] = application herbicide amount 320 g/ha
# [5] = application herbicide amount 260 g/ha
Compound,E (herbicidal effect grade) (Cyperus difformis),"H (herbicidal effect grade) [1, 4]",D (herbicidal effect grade) (Leptochloa chinensis; [4]),"b (effect on crop grade) [2, 4]",M (Abutilon theophrasti) herbicidal effect grade (Abutilon theophrasti; 320 g/ha),J (Alopecurus myosuroides) herbicidal effect grade (Alopecurus myosuroides; 320 g/ha),N (Amaranthus retroflexus) herbicidal effect grade (Amaranthus retroflexus; 320 g/ha),L (Apera spica-venti.) herbicidal effect grade (Apera spica-venti.; 320 g/ha),I (Avena fatua) herbicidal effect grade (Avena fatua; 320 g/ha),O (Chenopodium album) herbicidal effect grade (Chenopodium album; 320 g/ha),F (Digitaria ciliaris) herbicidal effect grade (Digitaria ciliaris; 320 g/ha),H (Echinochloa crus-galli var. crus-galli) herbicidal effect grade ([3]; 320 g/ha),K (Lolium multiflorum Lam.) herbicidal effect grade (Lolium multiflorum Lam.; 320 g/ha),G (Setaria viridis) herbicidal effect grade (Setaria viridis; 320 g/ha),P (Stellaria media) herbicidal effect grade (Stellaria media; 320 g/ha),"herbicidal effect, M (Abutilon theophrasti) (Abutilon theophrasti; 320 g/ha)","herbicidal effect, J (Alopecurus myosuroides) (Alopecurus myosuroides; 320 g/ha)","herbicidal effect, N (Amaranthus retroflexus) (Amaranthus retroflexus; 320 g/ha)","herbicidal effect, L (Apera spica-venti.) (Apera spica-venti.; 320 g/ha)","herbicidal effect, I (Avena fatua) (Avena fatua; 320 g/ha)",further results
CSCCn1nnnc1NC(=O)c1ccc(C(F)(F)F)n2c(C(C)C)nnc12 [2-048],5 (Herbicidal ratio of 90% or more (almost completely withered)),5 (Herbicidal ratio of 90% or more (almost completely withered)),5 (Herbicidal ratio of 90% or more (almost completely withered)),3 (Herbicidal ratio of 40% or more and less than 70%),5 (Herbicidal ratio of 90% or more (almost completely withered)),3 (Herbicidal ratio of 40% or more and less than 70%),5 (Herbicidal ratio of 90% or more (almost completely withered)),4 (Herbicidal ratio of 70% or more and less than 90%),4 (Herbicidal ratio of 70% or more and less than 90%),5 (Herbicidal ratio of 90% or more (almost completely withered)),5 (Herbicidal ratio of 90% or more (almost completely withered)),5 (Herbicidal ratio of 90% or more (almost completely withered)),4 (Herbicidal ratio of 70% or more and less than 90%),5 (Herbicidal ratio of 90% or more (almost completely withered)),4 (Herbicidal ratio of 70% or more and less than 90%),,,,,,"Q (Galium spurium) herbicidal effect grade (Galium spurium; foliage application, 320 g/ha): 4 (Herbicidal ratio of 70% or more and less than 90%)"
CSC(C)c1nnc2c(C(=O)Nc3nnnn3C)ccc(C(F)(F)F)n12 (stereo not shown) [2-052],5 (Herbicidal ratio of 90% or more (almost completely withered)),5 (Herbicidal ratio of 90% or more (almost completely withered)),5 (Herbicidal ratio of 90% or more (almost completely withered)),5 (Herbicidal ratio of 90% or more (almost completely withered)),5 (Herbicidal ratio of 90% or more (almost completely withered)),5 (Herbicidal ratio of 90% or more (almost completely withered)),5 (Herbicidal ratio of 90% or more (almost completely withered)),5 (Herbicidal ratio of 90% or more (almost completely withered)),5 (Herbicidal ratio of 90% or more (almost completely withered)),5 (Herbicidal ratio of 90% or more (almost completely withered)),5 (Herbicidal ratio of 90% or more (almost completely withered)),5 (Herbicidal ratio of 90% or more (almost completely withered)),5 (Herbicidal ratio of 90% or more (almost completely withered)),5 (Herbicidal ratio of 90% or more (almost completely withered)),5 (Herbicidal ratio of 90% or more (almost completely withered)),,,,,,
Cn1nnnc1NC(=O)c1ccc(C(F)(F)F)n2c(CO)nnc12 [2-108],,4 (Herbicidal ratio of 70% or more and less than 90%),5 (Herbicidal ratio of 90% or more (almost completely withered)),4 (Herbicidal ratio of 70% or more and less than 90%),,,,,,,,,,,,5 (Herbicidal ratio of 90% or more (almost completely withered)),0 (Herbicidal ratio of 5% or less (almost no effect)),5 (Herbicidal ratio of 90% or more (almost completely withered)),0 (Herbicidal ratio of 5% or less (almost no effect)),1 (Herbicidal ratio of 5% or more and less than 20%),"herbicidal effect, O (Chenopodium album) (Chenopodium album; 320 g/ha): 5 (Herbicidal ratio of 90% or more (almost completely withered)); herbicidal effect, F (Digitaria ciliaris) (Digitaria ciliaris; 320 g/ha): 4 (Herbicidal ratio of 70% or more and less than 90%); herbicidal effect, H (Echinochloa crus-galli var. crus-galli) ([3]; 320 g/ha): 5 (Herbicidal ratio of 90% or more (almost completely withered)); herbicidal effect, Q (Galium spurium) (Galium spurium; 320 g/ha): 4 (Herbicidal ratio of 70% or more and less than 90%); herbicidal effect, K (Lolium multiflorum Lam.) (Lolium multiflorum Lam.; 320 g/ha): 0 (Herbicidal ratio of 5% or less (almost no effect)); herbicidal effect, G (Setaria viridis) (Setaria viridis; 320 g/ha): 3 (Herbicidal ratio of 40% or more and less than 70%); herbicidal effect, P (Stellaria media) (Stellaria media; 320 g/ha): 5 (Herbicidal ratio of 90% or more (almost completely withered)); herbicidal effect, R (Veronica persica) (Veronica persica; 320 g/ha): 5 (Herbicidal ratio of 90% or more (almost completely withered))"
Cn1nnnc1NC(=O)c1ccc(C(F)(F)F)n2c(C=O)nnc12 [2-109],,,,,,,,,,,,,,,,,,,,,"H (herbicidal effect grade) [1, 5]: 3 (Herbicidal ratio of 40% or more and less than 70%); D (herbicidal effect grade) (Leptochloa chinensis; [5]): 5 (Herbicidal ratio of 90% or more (almost completely withered)); b (effect on crop grade) [2, 5]: 2 (Herbicidal ratio of 20% or more and less than 40%); herbicidal effect, M (Abutilon theophrasti) (Abutilon theophrasti; 256 g/ha): 5 (Herbicidal ratio of 90% or more (almost completely withered)); herbicidal effect, J (Alopecurus myosuroides) (Alopecurus myosuroides; 256 g/ha): 0 (Herbicidal ratio of 5% or less (almost no effect)); herbicidal effect, N (Amaranthus retroflexus) (Amaranthus retroflexus; 256 g/ha): 5 (Herbicidal ratio of 90% or more (almost completely withered)); herbicidal effect, L (Apera spica-venti.) (Apera spica-venti.; 256 g/ha): 0 (Herbicidal ratio of 5% or less (almost no effect)); herbicidal effect, I (Avena fatua) (Avena fatua; 256 g/ha): 1 (Herbicidal ratio of 5% or more and less than 20%); herbicidal effect, O (Chenopodium album) (Chenopodium album; 256 g/ha): 5 (Herbicidal ratio of 90% or more (almost completely withered)); herbicidal effect, F (Digitaria ciliaris) (Digitaria ciliaris; 256 g/ha): 3 (Herbicidal ratio of 40% or more and less than 70%); herbicidal effect, H (Echinochloa crus-galli var. crus-galli) ([3]; 256 g/ha): 4 (Herbicidal ratio of 70% or more and less than 90%); herbicidal effect, Q (Galium spurium) (Galium spurium; 256 g/ha): 3 (Herbicidal ratio of 40% or more and less than 70%); herbicidal effect, K (Lolium multiflorum Lam.) (Lolium multiflorum Lam.; 256 g/ha): 1 (Herbicidal ratio of 5% or more and less than 20%); herbicidal effect, G (Setaria viridis) (Setaria viridis; 256 g/ha): 2 (Herbicidal ratio of 20% or more and less than 40%); herbicidal effect, P (Stellaria media) (Stellaria media; 256 g/ha): 5 (Herbicidal ratio of 90% or more (almost completely withered)); herbicidal effect, R (Veronica persica) (Veronica persica; 256 g/ha): 5 (Herbicidal ratio of 90% or more (almost completely withered))"
Cn1nnnc1NC(=O)c1ccc(C(F)(F)F)n2c(C3(C)CC3(Cl)Cl)nnc12 (stereo not shown) [2-110],,5 (Herbicidal ratio of 90% or more (almost completely withered)),5 (Herbicidal ratio of 90% or more (almost completely withered)),3 (Herbicidal ratio of 40% or more and less than 70%),,,,,,,,,,,,5 (Herbicidal ratio of 90% or more (almost completely withered)),2 (Herbicidal ratio of 20% or more and less than 40%),5 (Herbicidal ratio of 90% or more (almost completely withered)),3 (Herbicidal ratio of 40% or more and less than 70%),3 (Herbicidal ratio of 40% or more and less than 70%),"herbicidal effect, O (Chenopodium album) (Chenopodium album; 320 g/ha): 5 (Herbicidal ratio of 90% or more (almost completely withered)); herbicidal effect, F (Digitaria ciliaris) (Digitaria ciliaris; 320 g/ha): 5 (Herbicidal ratio of 90% or more (almost completely withered)); herbicidal effect, H (Echinochloa crus-galli var. crus-galli) ([3]; 320 g/ha): 5 (Herbicidal ratio of 90% or more (almost completely withered)); herbicidal effect, Q (Galium spurium) (Galium spurium; 320 g/ha): 5 (Herbicidal ratio of 90% or more (almost completely withered)); herbicidal effect, K (Lolium multiflorum Lam.) (Lolium multiflorum Lam.; 320 g/ha): 3 (Herbicidal ratio of 40% or more and less than 70%); herbicidal effect, G (Setaria viridis) (Setaria viridis; 320 g/ha): 4 (Herbicidal ratio of 70% or more and less than 90%); herbicidal effect, P (Stellaria media) (Stellaria media; 320 g/ha): 5 (Herbicidal ratio of 90% or more (almost completely withered)); herbicidal effect, R (Veronica persica) (Veronica persica; 320 g/ha): 5 (Herbicidal ratio of 90% or more (almost completely withered))"
